# Patent US8680059B2, “Oligopeptide acetate and formulations thereof” (Biotempt B.V., priority 1998, dated 2014)
# Values joined by “and” are separate entries in the source; they are usually repeats but may differ in a detail not shown here. Identical values can stand only once.
# What was measured:
# [1] = tested on: mice, 25 minutes renal ischemia/reperfusion; test: Mouse renal ischemia reperfusion test (mortality, BUN/serum urea); type: in vivo; parameters: BUN, mean / Urea level: unit not given here; conditions: for BUN, mean: 5 mg/kg i.v.
# Experimental: SEQ ID NO:2 was tested and compared with PBS (control) in a double blind animal study for the peptide's relative ability to aid recovery in a mouse renal ischemia reperfusion test. In this test, the mice were anesthetized, and one kidney from each mouse was removed. The other kidney was tied off for 25 minutes, and the serum urea levels were allowed to increase. Both before and after tying off, the peptide was administered to thirty (30) different mice (5 mg oligopeptide/kg body mass intravenously), after which, the mortality of the mice was determined for each oligopeptide as well as was the BUN concentration at two hours, 24 hours and 72 hours.
# Under inhalation anesthesia, the left kidney with its artery and vein was isolated and occluded for 25 minutes using a microvascular clamp. During surgery animals were placed on a heating path to maintain body temperature at 37° C. Five minutes before placing the clamp, and 5 minutes before releasing the clamp, 5 mg/kg of peptide, dissolved in 0.1 mL of sterile saline, was administered intravenously. After reperfusion of the left kidney the right kidney was removed. Kidney function was assessed by measuring blood urea nitrogen before clamping, and at 2, 24, and 72 hours after reperfusion.
# To determine dose-response relationships SEQ ID NO:2, was tested in a dose-response manner in the mice test as described above. Peptides were tested at 0.3, 1, 3, 10 and 30 mg/kg dosages given as described in Example I. Serum urea levels are presented in Table 3.
# [2] = tested on: BALB/c mice injected i.p. with LPS (E. coli 026:B6); test: LPS-induced septic shock (endotoxin model) in BALB/c mice; type: in vivo, mouse; parameters: key to Sickness score of individual mouse: 0: No abnormalities.; 1: Percolated fur, but no detectable behavior differences compared to normal mice.; 2: Percolated fur, huddle reflex, responds to stimuli (such as tap on cage), just as active during handling as healthy mouse.; 3: Slower response to tap on cage, passive or docile when handled, but still curious when alone in a new setting.; 4: Lack of curiosity, little or no response to stimuli, quite immobile.; 5: Labored breathing, inability or slow to self-right after being rolled onto back (moribund, sacrificed).; Dead; conditions: for number of mice with sickness score 1 / number of mice with sickness score 2: peptide twice (t = 2 hr and 24 hr) 5 mg/kg; for Survival %: group of 6, 48 hrs
# Experimental: Mice used in sepsis or septic shock experiments: Female BALB/c mice of 8-12 weeks of age were used for all experiments. The animals were bred in our facility under specific pathogen-free conditions according to the protocols described in the Report of European Laboratory Animal Science Associations (FELASA) Working group on Animal Health (Laboratory Animals 28: 1-24, 1994).
# Injection protocols: For the endotoxin model, BALB/c mice were injected i.p. with 150-300 μg LPS (E. coli 026:B6; Difco Lab., Detroit, Mich., USA). Control groups were treated with PBS i.p. only. To test the effect of peptides, they were dissolved in PBS and injected i.p. at predetermined points in time after LPS treatment.
# Mice were scored for sickness severity using the following measurement scheme: • 0 No abnormalities. • 1 Percolated fur, but no detectable behavior differences compared to normal mice. • 2 Percolated fur, huddle reflex, responds to stimuli (such as tap on cage), just as active during handling as healthy mouse. • 3 Slower response to tap on cage, passive or docile when handled, but still curious when alone in a new setting. • 4 Lack of curiosity, little or no response to stimuli, quite immobile. • 5 Labored breathing, inability or slow to self-right after being rolled onto back (moribund, sacrificed). • D Dead […]
# A comparative trial was set up to compare peptide MTR and SEQ ID NO:2. The comparative trial comprised 6 groups of 6 animals; two groups (1A and 1B) receiving placebo (PBS), one group (2) peptide MTR (source Pepscan, Lelystad, NL), one group (3) receiving peptide MTR (source Ansynth), one group (4) receiving peptide SEQ ID NO:2 (source Pepscan) and one group peptide SEQ ID NO:2 (source Ansynth). Peptide/placebo in these groups was administered 2 hours after LPS. LPS (source) was used at 10-11 mg/kg. Sickness scores were done at 0, 2, 22 26 42 and 48 hours after LPS injection.
# [3] = 5 mg/kg i.p. given both early (2 hours) or late (24 hours)
substance,measurement,setting,value
"AQGV [tetrapeptide derived from human chorionic gonadotropin, alanine replacement of LQGV]",Mortality in dose-response experiment,"[1]; 0.3 mg/kg, 24 h",0-9
same,Urea level,"[1]; 0.3 mg/kg, 24 h",62.4
same,Mortality in dose-response experiment,"[1]; 0.3 mg/kg, 72 h",2-10
same,Urea level,"[1]; 0.3 mg/kg, 72 h",86.7
same,Mortality in dose-response experiment,"[1]; 1.0 mg/kg, 24 h",0-10
same,Urea level,"[1]; 1.0 mg/kg, 24 h",50.0
same,Mortality in dose-response experiment,"[1]; 1.0 mg/kg, 72 h",1-8
same,Urea level,"[1]; 1.0 mg/kg, 72 h",52.6
same,Mortality in dose-response experiment,"[1]; 3.0 mg/kg, 24 h",1-10
same,Urea level,"[1]; 3.0 mg/kg, 24 h",37.4
same,Mortality in dose-response experiment,"[1]; 3.0 mg/kg, 72 h",0-10
same,Urea level,"[1]; 3.0 mg/kg, 72 h",19.6
same,mortality at 72 hours post-reperfusion,"[1]; 5 mg/kg i.v. before and after clamping, dead/total",0/10
same,Mortality in dose-response experiment,"[1]; 10.0 mg/kg, 24 h",0-10
same,Urea level,"[1]; 10.0 mg/kg, 24 h",41.2
same,Mortality in dose-response experiment,"[1]; 10.0 mg/kg, 72 h",0-8
same,Urea level,"[1]; 10.0 mg/kg, 72 h",37.1
same,Mortality in dose-response experiment,"[1]; 30.0 mg/kg, 24 h",0-8
same,Urea level,"[1]; 30.0 mg/kg, 24 h",47.8
same,Mortality in dose-response experiment,"[1]; 30.0 mg/kg, 72 h",3-10
same,Urea level,"[1]; 30.0 mg/kg, 72 h",38.0
same,"BUN, mean",[1]; 2 hr after reperfusion,16.62
same,"BUN, mean",[1]; 24 hr after reperfusion,26.36
same,"BUN, mean",[1]; 72 hr after reperfusion,22.31
same,"BUN, mean",[1]; t = 0 hr (before clamping),9.713
same,clinical signs of shock at 84 hours after LPS-treatment,[2]; [3],no remaining clinical signs of shock
same,survival at 84 hours after LPS-treatment,[2]; [3],100%
same,number of mice with sickness score 1,"[2]; LPS dose 10.5, t = 24 hr",2
same,number of mice with sickness score 2,"[2]; LPS dose 10.5, t = 24 hr",3
same,number of mice with sickness score 1,"[2]; LPS dose 10.5, t = 48 hr",5
same,number of mice with sickness score 1,"[2]; LPS dose 11, t = 24 hr",2
same,number of mice with sickness score 2,"[2]; LPS dose 11, t = 24 hr",4
same,number of mice with sickness score 1,"[2]; LPS dose 11, t = 48 hr",6
same,% survival,"[2]; single injection 5 mg/kg 2 hours after LPS (300 μg), time 0 hours",100%
same,% survival,"[2]; single injection 5 mg/kg 2 hours after LPS, time 14 hours",100%
same,% survival,"[2]; single injection 5 mg/kg 2 hours after LPS, time 24 hours",100%
same,% survival,"[2]; single injection 5 mg/kg 2 hours after LPS, time 48 hours",100%
same,% survival,"[2]; single injection 5 mg/kg 2 hours after LPS, time 84 hours",100%
same,% survival,"[2]; single injection 5 mg/kg 24 hours after LPS (300 μg), time 0 hours",100%
same,% survival,"[2]; single injection 5 mg/kg 24 hours after LPS, time 14 hours",100%
same,% survival,"[2]; single injection 5 mg/kg 24 hours after LPS, time 24 hours",100%
same,% survival,"[2]; single injection 5 mg/kg 24 hours after LPS, time 48 hours",100%
same,% survival,"[2]; single injection 5 mg/kg 24 hours after LPS, time 84 hours",100%
same,Sickness score of individual mouse,"[2]; source Ansynth (#Ansynth 12/46) 2 hours after LPS 10-11 mg/kg, 0 hrs (before peptide)",0
same,Sickness score of individual mouse,"[2]; source Ansynth (#Ansynth 12/46) 2 hours after LPS 10-11 mg/kg, 2 hrs (at peptide administration)",2
same,Sickness score of individual mouse,"[2]; source Ansynth (#Ansynth 12/46) 2 hours after LPS 10-11 mg/kg, 22 hrs",3 (2×) and 2 (3×) and 4
same,Sickness score of individual mouse,"[2]; source Ansynth (#Ansynth 12/46) 2 hours after LPS 10-11 mg/kg, 26 hrs",3 (2×) and 2 (3×) and 4
same,Sickness score of individual mouse,"[2]; source Ansynth (#Ansynth 12/46) 2 hours after LPS 10-11 mg/kg, 42 hrs",2 and 3 and 1 (3×) and 5
same,Sickness score of individual mouse,"[2]; source Ansynth (#Ansynth 12/46) 2 hours after LPS 10-11 mg/kg, 48 hrs",1 (5×) and dead
same,Survival %,[2]; source Ansynth (#Ansynth 12/46) 2 hours after LPS 10-11 mg/kg,83%
same,Sickness score of individual mouse,"[2]; source Pepscan (#970/#971) 5 mg/kg 2 hours after LPS 10-11 mg/kg, 0 hrs (before peptide)",0
same,Sickness score of individual mouse,"[2]; source Pepscan (#970/#971) 5 mg/kg 2 hours after LPS 10-11 mg/kg, 2 hrs (at peptide administration)",2
same,Sickness score of individual mouse,"[2]; source Pepscan (#970/#971) 5 mg/kg 2 hours after LPS 10-11 mg/kg, 22 hrs",2 (4×) and 3 and 4
same,Sickness score of individual mouse,"[2]; source Pepscan (#970/#971) 5 mg/kg 2 hours after LPS 10-11 mg/kg, 26 hrs",2 (3×) and 3 (2×) and 5
same,Sickness score of individual mouse,"[2]; source Pepscan (#970/#971) 5 mg/kg 2 hours after LPS 10-11 mg/kg, 42 hrs",2 (5×) and dead
same,Sickness score of individual mouse,"[2]; source Pepscan (#970/#971) 5 mg/kg 2 hours after LPS 10-11 mg/kg, 48 hrs",2 (3×) and 1 (2×)
same,Survival %,[2]; source Pepscan (#970/#971) 5 mg/kg 2 hours after LPS 10-11 mg/kg,83%
